Measured values taken from patent US7435555B2, “Asparagine hydroxylation of the CAD domain of a HIF protein” (Adelaide Research and Innovation Pty Ltd., priority 2001, dated 2008).

Columns and labels:
Assay type in all cases: cell-based, human
[1] = tested on: Gal4DBD/HIF-2α 774-874 CAD chimera; assay: Gal4 response element luciferase reporter gene assay, GalDBD/HIF-2α CAD chimera; conditions: cells treated 16 h at normoxia
Text: FIG. 3. Expression vectors for either the Gal4 DNA Binding Domain or the indicated GalDBD HIF-1α and HIF-2α CAD chimeric proteins were contransfected with a Gal4 response element containing luciferase reporter gene and an internal control renilla luciferase reporter gene. […] Data are the average of three transfections±standard deviation.
FIG. 6. […] A) Sequence comparisons show conservation of the critical Asn between HIF-1α and HIF-2α across species. […] HEK293T cells were transfected according to the protocol of FIG. 3A and data represent the average of triplicate transfections +/standard deviation. (C). The wild type and mutant Ga14DBD/HIF chimeras used in A) are expressed at the same levels during transient transfection. Whole cell extracts of control or transfected cells were separated by SDS-PAGE and proteins detected by immunoblotting with antibodies directed against the C-terminus of HIF-1α (C) or HIF2α.
Human embryonic kidney 293T and rat pheochromocytoma PC12 cells were maintained in Dulbecco's Modified Eagles Medium (DMEM) supplemented with 10% foetal calf serum. For transient transfections, cells were plated onto 24 well plates at a density of 2.0×10^4 cells/well. […] After 16 hrs treatment, cells were harvested, Iysed and extracts analysed using the Dual Luciferase Reporter Assay Kit as outlined by the manufacturer (Promega). […]

[2] = tested on: Gal4DBD/HIF-1α 727-826 CAD chimera; assay: Gal4 response element luciferase reporter gene assay, GalDBD/HIF-1α CAD chimera; conditions: cells treated 16 h at normoxia
[3] = tested on: HIF-2α CAD Asn851 hydroxylation; assay: Mass spectrometry of HIF-2α CAD purified from stable 293T cells (hydroxylation of Asn851); conditions: DP 100 μM, 3 h; MALDI-TOF
Experimental: FIG. 5. A) Mass spectrometry of the HIF-2α CAD purified from cells incubated in normoxia or subjected to hypoxia (<1% O2, 3 h) or DP (100 μM, 3 h) treatments. A & B) Magnified views of the MALDI-TOF spectra corresponding to hydroxylation (+16 Da) of the peptide […] [SED ID NO. 1], which appears in the normoxic but not hypoxic or DP treated samples. […] Fragments were also observed for the modified sequence at m/z values of +16 Da higher than Asn851-containing fragments of the unmodified sequence. The boundary of the coincident and +16 Da fragment ions is indicated by the symbol N+ on the fragment ion spectrum of the modified sequence.
Samples for MS analysis were isolated from a 293T stable cell line that expressed HIF-2α774-874. After normoxic culture or treatment with hypoxia or DP as specified, cells were washed once with PBS, then lysed with binding buffer (100 mM Na-Phosphate pH8.0, 8M Urea, 0.1% NP40, 0.15M NaCl2, 5 mM imidazole, 1 mM βMe, 0.05 mM Na3VO4, 0.1 mM NaF, 0.5 mM β-Glycerophosphate, protease inhibitors). […]
Tryptic digests were analyzed using a Bruker Reflex MALDI-TOF-MS operated in the positive ion reflector mode. MALDI-TOF-MS data were acquired and analyzed using the Bruker XMass suite of software (Lopaticki et al., 1998; Pitt et al., 2000; Gorman et al., 1997). […]

HIF-2α CAD = assay: Immunoblot of HIF-2α CAD protein expression in stable transfected HEK 293T cells; conditions: treatment 3 h, anti-myc immunoblot
Text: FIG. 4. A) Schematic showing domains of HIF-2α and the construct containing the CAD region fused to a 6xHis tag/myc epitope which was used to generate a stable expressing cell line. B) Protein expression of the HIF-2α CAD is not increased by hypoxia or DP treatment. […] The 293T control lane contains extract from cells stably transfected with blank expression vector. C) Sypro-Ruby (Bio-Rad) stained SDSPAGE gel showing an example of HIF-2α CAD purified from stable transfected cells. Extracts from non transfected cells subjected to the same purification procedure lack the HIF-2α CAD band.The higher molecular weight contaminant that is co-purified by the procedure was identified as 60S ribosomal protein L27A by mass spectrometry.
Isolated cell pellets were lysed in whole cell extract (WCE) buffer (10 mM Tris pH7.9, 0.42M NaCl2, 0.5% NP40, 25% Glycerol, 0.2 mM EDTA, 1.5 mM MgCl2, 1 mM DTT, protease inhibitors) for 10 min at 4° C. Lysed extracts were then clarified by centrifugation at 12,000 g for 15 min. The protein concentration of clarified lysates was determined using the Bradford assay (Biorad). Protein samples were then resolved on 12.5% Tris-Tricine gels. For the HIF-2α774-874 stable line, 10 μg of WCE was analysed by immunoblotting with the anti-myc 9E10 monoclonal antibody. […]

SMILES	activity of the Gal4DBD/HIF-2α CAD chimera on treatment of cells [1]	activity of the Gal4DBD/HIF-1α CAD chimera on treatment of cells [2]	+16 Da (hydroxylated) form of peptide 846-YDCEVNVPVPGSSTLLQGR-864 [3]	protein expression of the HIF-2α CAD (HIF-2α CAD)
COC(=O)CNC(=O)C(=O)OC [DMOG, dimethyl-oxalylglycine]	activation of the Gal4DBD/HIF-1α and Gal4DBD/HIF-2α CAD chimeras to a similar extent as that seen during treatment with hypoxia	activation of the Gal4DBD/HIF-1α and Gal4DBD/HIF-2α CAD chimeras to a similar extent as that seen during treatment with hypoxia		
c1ccc(-c2ccccn2)nc1 [DP, 2,2′-dipyridyl]	induces activity of the CADs		complete lack of the +16 mass increase	not increased
